Tests used:
Assay in all cases: relative viability (nuclei count vs DMSO), 5 days (fraction); higher = more cells survive
IPA-3 + Trametinib = compound: C1=CC=C2C(=C1)C=CC(=C2SSC3=C(C=CC4=CC=CC=C43)O)O [IPA-3] + CC(=O)Nc1cccc(-n2c(=O)n(C3CC3)c(=O)c3c(Nc4ccc(I)cc4F)n(C)c(=O)c(C)c32)c1 [Trametinib] (partner 0.02 µM)
Method in brief: (§1)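 Nuclei were stained with Hoechst during a one-step fixation (final 0.05% Triton X-100, 1% formaldehyde, 1 ug/ml Hoechst) carried out 5 days after dosing, then counted on 4× images. The cells, lung cancer lines in 1536-well plates, had been dosed by pin tool the day after seeding with one drug alone or a fixed anchor-drug dose plus five library-drug doses (not always all listed) in √10 steps. Relative viability is the nuclei count in treated wells divided by that in vehicle wells, and each value is the median of duplicate plates.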

Doramapimod + Phenformin = compound: Cc1ccc(-n2nc(C(C)(C)C)cc2NC(=O)Nc2ccc(OCCN3CCOCC3)c3ccccc23)cc1 [Doramapimod] + N=C(N)NC(=N)NCCc1ccccc1 [Phenformin] (partner 250 µM)
Method in brief: as §1

RAF265 + Palbociclib = compound: Cn1c(Nc2ccc(C(F)(F)F)cc2)nc2cc(Oc3ccnc(-c4ncc(C(F)(F)F)[nH]4)c3)ccc21 [RAF265] + CC(=O)c1c(C)c2cnc(Nc3ccc(N4CCNCC4)cn3)nc2n(C2CCCC2)c1=O [Palbociclib] (partner 0.5 µM)
Method in brief: as §1

RAF265 + Dasatinib = compound: Cn1c(Nc2ccc(C(F)(F)F)cc2)nc2cc(Oc3ccnc(-c4ncc(C(F)(F)F)[nH]4)c3)ccc21 [RAF265] + Cc1nc(Nc2ncc(C(=O)Nc3c(C)cccc3Cl)s2)cc(N2CCN(CCO)CC2)n1 [Dasatinib] (partner 0.075 µM)
Method in brief: as §1

UMC-11 was tested, and the relative viability (IPA-3 + Trametinib; first compound 0.2 µM) was 0.804, the relative viability (IPA-3 + Trametinib; first compound 0.6325 µM) was 0.666 and the relative viability (IPA-3 + Trametinib; first compound 2 µM) was 0.677. For the same cell line, the relative viability (IPA-3 + Trametinib; first compound 6.325 µM) was 0.6, the relative viability (IPA-3 + Trametinib; first compound 20 µM) was 0.794 and the relative viability (Doramapimod + Phenformin; first compound 0.02 µM) was 0.319. It also gave a relative viability (Doramapimod + Phenformin; first compound 0.06325 µM) of 0.32, a relative viability (Doramapimod + Phenformin; first compound 0.2 µM) of 0.339 and a relative viability (Doramapimod + Phenformin; first compound 0.6325 µM) of 0.368. For the same cell line, the relative viability (Doramapimod + Phenformin; first compound 2 µM) was 0.309, the relative viability (RAF265 + Palbociclib; first compound 0.01 µM) was 0.309 and the relative viability (RAF265 + Palbociclib; first compound 0.03162 µM) was 0.336. For the same cell line, the relative viability (RAF265 + Palbociclib; first compound 0.1 µM) was 0.334, the relative viability (RAF265 + Palbociclib; first compound 0.3162 µM) was 0.314 and the relative viability (RAF265 + Palbociclib; first compound 1 µM) was 0.32. It also gave a relative viability (RAF265 + Dasatinib; first compound 0.01 µM) of 0.443, a relative viability (RAF265 + Dasatinib; first compound 0.03162 µM) of 0.442 and a relative viability (RAF265 + Dasatinib; first compound 0.1 µM) of 0.457. It also gave a relative viability (RAF265 + Dasatinib; first compound 0.3162 µM) of 0.444 and a relative viability (RAF265 + Dasatinib; first compound 1 µM) of 0.4.

— the supplement of paper PMC10307832
